# Key:
# Type in all cases: in vivo
# [1] = system: Viola tricolor (VIOTR); experiment: E. Herbicidal post-emergence efficacy, VIOTR
# Method in brief: (§1)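 Visual scoring against untreated plants was done roughly 3 weeks after spraying (0% = no effect, 100% = plants dead). Spray application at 320 g/ha or lower, 600 l/ha water with 0.5% additive, was made onto green parts of one-leaf-stage greenhouse plants grown 2-3 weeks in sandy loam.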
# [2] = system: Setaria viridis (SETVI); experiment: E. Herbicidal post-emergence efficacy, SETVI
# Method in brief: as §1
# [3] = system: Echinochloa crus-galli (ECHCG); experiment: E. Herbicidal post-emergence efficacy, ECHCG
# Method in brief: as §1
# [4] = system: Abutilon theophrasti (ABUTH); experiment: A. Herbicidal pre-emergence efficacy, ABUTH; conditions: scored visually after about 3 weeks vs untreated controls
# Method in brief: (§2)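 Applied before emergence onto covering soil at rates of 1280 g/ha or less, using 600 L/ha spray water with 0.5% additive. Scoring: visual % efficacy after ~3 weeks, greenhouse.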
# [5] = system: Stellaria media (STEME); experiment: A. Herbicidal pre-emergence efficacy, STEME
# Method in brief: as §2
# [6] = system: Amaranthus retroflexus (AMARE); experiment: C. Herbicidal pre-emergence efficacy, AMARE; conditions: scored after about 3 weeks
# Method in brief: (§3)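 Pre-emergence test: formulated compounds sprayed as aqueous suspension or emulsion with 0.5% additive at 600 l/ha onto soil covering sown seeds, at rates corresponding to 320 g/ha or less. After about 3 weeks in greenhouse, efficacy scored visually as percent versus untreated controls (100% = plants dead).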
# [7] = system: Setaria viridis (SETVI); experiment: B. Herbicidal post-emergence efficacy, SETVI
# Method in brief: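 Post-emergence foliar spray, at application rates of 1280 g/ha or less, on one-leaf-stage plants 2–3 weeks post-sowing, using aqueous WP or EC suspensions with 0.5% additive at 600 L/ha. Visual percent efficacy relative to untreated plants scored roughly 3 weeks later in the greenhouse.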
# [8] = system: Setaria viridis (SETVI); experiment: C. Herbicidal pre-emergence efficacy, SETVI; conditions: scored after about 3 weeks
# Method in brief: as §3
structure (smiles),measurement,setting,value
O=S(=O)(CCCCCl)Oc1ccccc1Oc1ncc(Cl)cn1 [Example I-15],Post-emergence efficacy against VIOTR in %,[1]; application rate 80 g/ha,90%
same,Post-emergence efficacy against VIOTR in %,[1]; application rate 320 g/ha,100%
same,Post-emergence efficacy against SETVI in %,[2]; application rate 80 g/ha,80%
same,Post-emergence efficacy against SETVI in %,[2]; application rate 320 g/ha,100%
same,Post-emergence efficacy against ECHCG in %,[3]; application rate 320 g/ha,80%
same,Pre-emergence efficacy against ABUTH,[4]; 80 g/ha,100%
same,Pre-emergence efficacy against ABUTH,[4]; 320 g/ha,100%
same,Pre-emergence efficacy against ABUTH,[4]; 1280 g/ha,100%
same,Pre-emergence efficacy against STEME,[5]; dosage 80 g/ha,100%
same,Pre-emergence efficacy against STEME,[5]; dosage 320 g/ha,100%
same,Pre-emergence efficacy against STEME,[5]; dosage 1280 g/ha,100%
same,Pre-emergence efficacy against AMARE,[6]; 80 g/ha,90%
same,Pre-emergence efficacy against AMARE,[6]; 320 g/ha,100%
same,Post-emergence efficacy against SETVI,[7]; 1280 g/ha,100%
same,Pre-emergence efficacy against SETVI,[8]; 80 g/ha,80%
same,Pre-emergence efficacy against SETVI,[8]; 320 g/ha,100%
O=S(=O)(CCC(F)(F)F)Oc1ccccc1Oc1ncc(Cl)cn1 [Example I-8],Post-emergence efficacy against VIOTR in %,[1]; application rate 80 g/ha,80%
same,Post-emergence efficacy against VIOTR in %,[1]; application rate 320 g/ha,100%
same,Post-emergence efficacy against SETVI in %,[2]; application rate 80 g/ha,90%
same,Post-emergence efficacy against SETVI in %,[2]; application rate 320 g/ha,90%
same,Post-emergence efficacy against ECHCG in %,[3]; application rate 80 g/ha,90%
same,Post-emergence efficacy against ECHCG in %,[3]; application rate 320 g/ha,90%
same,Pre-emergence efficacy against ABUTH,[4]; 80 g/ha,90%
same,Pre-emergence efficacy against ABUTH,[4]; 320 g/ha,90%
same,Pre-emergence efficacy against ABUTH,[4]; 1280 g/ha,100%
same,Pre-emergence efficacy against STEME,[5]; dosage 80 g/ha,100%
same,Pre-emergence efficacy against STEME,[5]; dosage 320 g/ha,100%
same,Pre-emergence efficacy against STEME,[5]; dosage 1280 g/ha,100%
same,Pre-emergence efficacy against AMARE,[6]; 80 g/ha,100%
same,Pre-emergence efficacy against AMARE,[6]; 320 g/ha,100%
same,Post-emergence efficacy against SETVI,[7]; 320 g/ha,90%
same,Post-emergence efficacy against SETVI,[7]; 1280 g/ha,90%
same,Pre-emergence efficacy against SETVI,[8]; 80 g/ha,100%
same,Pre-emergence efficacy against SETVI,[8]; 320 g/ha,100%
O=S(=O)(CCCCl)Oc1ccccc1Oc1ncc(F)cn1 [Example I-5],Post-emergence efficacy against VIOTR in %,[1]; application rate 80 g/ha,80%
same,Post-emergence efficacy against VIOTR in %,[1]; application rate 320 g/ha,90%
same,Post-emergence efficacy against SETVI in %,[2]; application rate 80 g/ha,90%
same,Post-emergence efficacy against SETVI in %,[2]; application rate 320 g/ha,100%
same,Post-emergence efficacy against ECHCG in %,[3]; application rate 80 g/ha,80%
same,Post-emergence efficacy against ECHCG in %,[3]; application rate 320 g/ha,100%
same,Pre-emergence efficacy against ABUTH,[4]; 80 g/ha,100%
same,Pre-emergence efficacy against ABUTH,[4]; 320 g/ha,100%
same,Pre-emergence efficacy against ABUTH,[4]; 1280 g/ha,100%
same,Pre-emergence efficacy against STEME,[5]; dosage 80 g/ha,90%
same,Pre-emergence efficacy against STEME,[5]; dosage 320 g/ha,100%
same,Pre-emergence efficacy against STEME,[5]; dosage 1280 g/ha,100%
same,Pre-emergence efficacy against AMARE,[6]; 80 g/ha,100%
same,Pre-emergence efficacy against AMARE,[6]; 320 g/ha,100%
same,Post-emergence efficacy against SETVI,[7]; 320 g/ha,90%
same,Post-emergence efficacy against SETVI,[7]; 1280 g/ha,100%
same,Pre-emergence efficacy against SETVI,[8]; 80 g/ha,90%
same,Pre-emergence efficacy against SETVI,[8]; 320 g/ha,100%
CCCCS(=O)(=O)Oc1ccccc1Oc1ncc(Cl)cn1 [Example I-6],Post-emergence efficacy against VIOTR in %,[1]; application rate 80 g/ha,80%
same,Post-emergence efficacy against VIOTR in %,[1]; application rate 320 g/ha,90%
same,Post-emergence efficacy against SETVI in %,[2]; application rate 80 g/ha,90%
same,Post-emergence efficacy against SETVI in %,[2]; application rate 320 g/ha,100%
same,Post-emergence efficacy against ECHCG in %,[3]; application rate 80 g/ha,90%
same,Post-emergence efficacy against ECHCG in %,[3]; application rate 320 g/ha,100%
same,Pre-emergence efficacy against ABUTH,[4]; 80 g/ha,100%
same,Pre-emergence efficacy against ABUTH,[4]; 320 g/ha,100%
same,Pre-emergence efficacy against ABUTH,[4]; 1280 g/ha,100%
same,Pre-emergence efficacy against STEME,[5]; dosage 80 g/ha,100%
same,Pre-emergence efficacy against STEME,[5]; dosage 320 g/ha,100%
same,Pre-emergence efficacy against STEME,[5]; dosage 1280 g/ha,100%
same,Pre-emergence efficacy against AMARE,[6]; 80 g/ha,100%
same,Pre-emergence efficacy against AMARE,[6]; 320 g/ha,100%
same,Post-emergence efficacy against SETVI,[7]; 1280 g/ha,90%
same,Pre-emergence efficacy against SETVI,[8]; 80 g/ha,90%
same,Pre-emergence efficacy against SETVI,[8]; 320 g/ha,100%
O=S(=O)(CCCC(F)(F)F)Oc1c(Cl)cccc1Oc1ncc(Cl)cn1 [Example I-39],Post-emergence efficacy against VIOTR in %,[1]; application rate 80 g/ha,100%
same,Post-emergence efficacy against VIOTR in %,[1]; application rate 320 g/ha,100%
same,Post-emergence efficacy against SETVI in %,[2]; application rate 80 g/ha,100%
same,Post-emergence efficacy against SETVI in %,[2]; application rate 320 g/ha,100%
same,Post-emergence efficacy against ECHCG in %,[3]; application rate 80 g/ha,90%
same,Post-emergence efficacy against ECHCG in %,[3]; application rate 320 g/ha,100%
same,Pre-emergence efficacy against ABUTH,[4]; 80 g/ha,90%
same,Pre-emergence efficacy against ABUTH,[4]; 320 g/ha,100%
same,Pre-emergence efficacy against ABUTH,[4]; 1280 g/ha,100%
same,Pre-emergence efficacy against STEME,[5]; dosage 320 g/ha,100%
same,Pre-emergence efficacy against STEME,[5]; dosage 1280 g/ha,100%
same,Pre-emergence efficacy against AMARE,[6]; 80 g/ha,100%
same,Pre-emergence efficacy against AMARE,[6]; 320 g/ha,100%
same,Post-emergence efficacy against SETVI,[7]; 320 g/ha,90%
same,Post-emergence efficacy against SETVI,[7]; 1280 g/ha,90%
same,Pre-emergence efficacy against SETVI,[8]; 80 g/ha,100%
same,Pre-emergence efficacy against SETVI,[8]; 320 g/ha,100%
O=S(=O)(CCCC(F)(F)F)Oc1c(F)cccc1Oc1ncc(Cl)cn1 [Example I-49],Post-emergence efficacy against VIOTR in %,[1]; application rate 80 g/ha,100%
same,Post-emergence efficacy against VIOTR in %,[1]; application rate 320 g/ha,100%
same,Post-emergence efficacy against SETVI in %,[2]; application rate 80 g/ha,100%
same,Post-emergence efficacy against SETVI in %,[2]; application rate 320 g/ha,100%
same,Post-emergence efficacy against ECHCG in %,[3]; application rate 80 g/ha,100%
same,Post-emergence efficacy against ECHCG in %,[3]; application rate 320 g/ha,100%
same,Pre-emergence efficacy against ABUTH,[4]; 80 g/ha,100%
same,Pre-emergence efficacy against ABUTH,[4]; 320 g/ha,100%
same,Pre-emergence efficacy against ABUTH,[4]; 1280 g/ha,100%
same,Pre-emergence efficacy against STEME,[5]; dosage 80 g/ha,100%
same,Pre-emergence efficacy against STEME,[5]; dosage 320 g/ha,100%
same,Pre-emergence efficacy against STEME,[5]; dosage 1280 g/ha,100%
same,Pre-emergence efficacy against AMARE,[6]; 80 g/ha,100%
same,Pre-emergence efficacy against AMARE,[6]; 320 g/ha,100%
same,Post-emergence efficacy against SETVI,[7]; 320 g/ha,90%
same,Post-emergence efficacy against SETVI,[7]; 1280 g/ha,90%
same,Pre-emergence efficacy against SETVI,[8]; 80 g/ha,100%
same,Pre-emergence efficacy against SETVI,[8]; 320 g/ha,100%
Cc1cccc(Oc2ncc(Cl)cn2)c1OS(=O)(=O)CC1CC(F)(F)C1 [Example I-74],Post-emergence efficacy against VIOTR in %,[1]; application rate 80 g/ha,100%
same,Post-emergence efficacy against VIOTR in %,[1]; application rate 320 g/ha,100%
same,Post-emergence efficacy against SETVI in %,[2]; application rate 320 g/ha,90%
same,Post-emergence efficacy against ECHCG in %,[3]; application rate 320 g/ha,100%
same,Pre-emergence efficacy against ABUTH,[4]; 1280 g/ha,90%
same,Pre-emergence efficacy against STEME,[5]; dosage 320 g/ha,90%
same,Pre-emergence efficacy against STEME,[5]; dosage 1280 g/ha,100%
same,Pre-emergence efficacy against AMARE,[6]; 80 g/ha,90%
same,Pre-emergence efficacy against AMARE,[6]; 320 g/ha,100%
same,Post-emergence efficacy against SETVI,[7]; 1280 g/ha,100%
same,Pre-emergence efficacy against SETVI,[8]; 80 g/ha,100%
same,Pre-emergence efficacy against SETVI,[8]; 320 g/ha,100%
O=S(=O)(CCC(F)(F)F)Oc1c(Cl)cccc1Oc1ncc(Br)cn1 [Example I-32],Post-emergence efficacy against VIOTR in %,[1]; application rate 80 g/ha,100%
same,Post-emergence efficacy against VIOTR in %,[1]; application rate 320 g/ha,100%
same,Post-emergence efficacy against SETVI in %,[2]; application rate 80 g/ha,80%
same,Post-emergence efficacy against SETVI in %,[2]; application rate 320 g/ha,100%
same,Post-emergence efficacy against ECHCG in %,[3]; application rate 320 g/ha,90%
same,Pre-emergence efficacy against ABUTH,[4]; 320 g/ha,90%
same,Pre-emergence efficacy against ABUTH,[4]; 1280 g/ha,100%
same,Pre-emergence efficacy against STEME,[5]; dosage 320 g/ha,90%
same,Pre-emergence efficacy against STEME,[5]; dosage 1280 g/ha,90%
same,Pre-emergence efficacy against AMARE,[6]; 80 g/ha,100%
same,Pre-emergence efficacy against AMARE,[6]; 320 g/ha,100%
same,Post-emergence efficacy against SETVI,[7]; 320 g/ha,90%
same,Post-emergence efficacy against SETVI,[7]; 1280 g/ha,100%
same,Pre-emergence efficacy against SETVI,[8]; 80 g/ha,90%
same,Pre-emergence efficacy against SETVI,[8]; 320 g/ha,100%
